Experimental data as given in US5422344A, “Method of treating retroviral infections in mammals” (The United States of America as represented by the …, priority 1990, dated 1995).

What was measured:
[1] = system: eukaryotic topo I; details: Gupta et al. 1988; cited from earlier work
[2] = system: Friend virus/spleen focus forming virus (SFFV); assay: Inhibition of Friend virus disease in mice (spleen weight, IP); type: in vivo, male NFS mice; details: for Number Friend disease positive (spleen weight >0.2 g) / Spleen weight AVG.: 4 weeks
From the text: INHIBITION OF FRIEND VIRUS DISEASE IN MICE BY CAMPTOTHECIN. […] The Friend virus/spleen focus forming virus (SFFV) mouse model was used to test CPT in vivo. SFFV is a defective type C retrovirus which induces the rapid onset of erythroleukemia, characterized by severe splenomegaly, and death of the affected animal within 3-6 weeks after innoculation. A well characterized stock of SFFV, in complex with an amphotropic murine C-type virus which induced only a low incidence of lymphoid and myloid disease after a long latency, was injected into adult mice at viral dilutions which would be expected to induce Friend erythroleukemia in essentially 100% of infected mice.
Male NFS mice were injected IP with 0.5 ml of virus stock to which CPT, disolved in DMSO, was added. The average weight of a mouse was 24 g, and CPT was added from a stock at 10 mg/ml. DMSO was added to A, E and I viral inoculum at 2.8%, the maximum level. Animals were sacrificed 4 weeks after inoculation, and spleens were weighed to determine the incidence of Friend virus induced splenomegaly.

[3] = system: Simian Virus 40 DNA replication; details: Snapka 1986; cited from earlier work
[4] = system: mammalian cells; details: cytotoxic doses, Wall et al., cited from earlier work
[5] = system: viral associated topo I; assay: Inhibition of viral associated topo I activity; type: biochemical
[6] = system: lentivirus-associated topoisomerase; assay: Inhibition of lentivirus-associated topoisomerase activity; type: biochemical, HIV and EIAV
[7] = system: Spleen Focus Forming Virus (SFFV); assay: Inhibition of disease induction in vivo by SFFV, IV or IP; design: species or system NFS mice; details: CPT 20 mg/kg; for # diseased mice (diseased/injected) / AVG. spleen WT.: 4 weeks
Method: Inhibition of Disease Induction In Vivo by Spleen Focus Forming Virus (SFFV) by Intravenous or Intraperitoneal Infection of CPT. In a repeat and extension of the previous experiment, NFS mice were injected either intraperitoneally or intravenously with dilutions of infectious virus stock in the presence or absence of CPT. Virus was mixed with stocks of CPT dissolved in DMSO at 10 mg/ml and adjusted so that mice were treated at 20 mg/kg. In samples without CPT, DMSO was added to an equivalent concentration (9.6%). In both IP and IV injections, 0.5ml was injected per mouse. Animals were monitored and sacrificed 4 weeks after injection. Spleens were weighed, and a spleen weight in excess of 0.2 gm was judged positive for SFFV disease.

[8] = system: HIV p24 antigen; assay: Western blot analysis of HIV p24 antigen after HIV infection and CPT treatment; type: cell-based, HIV-1; details: 7 days post-infection
Method: A. H9 cells were infected as described in Table 1 and the text. Virus was pelleted from culture supernatants 7 days after infection. The viral pellets were resuspended, lysed, and the proteins separated and transferred as described in the Examples. The blot was analyzed using an HIV p24 specific monoclonal antibody (S. Showalter and M. Zweig, unpublished), and visualized using the Bio-Rad immunogold kit. Lane 1: virus from untreated infected cells; lane 2: virus from cells treated with 0.005 μM CPT for the first 18 h after infection.
B. Extracts of HIV-infected cells (7 days post-infection) were prepared and analyzed as described in the Examples using an HIV p24 specific monoclonal antibody (S. Showalter and M. Zweig, unpublished). Blots were visualized using the Bio-Rad immunogold kit. Lane 1: untreated infected cells; lane 2: 0.2 μM CPT; lane 3: 0.1 μM CPT; lane 4: 0.05 μM CPT; lane 5: 0.02 μM CPT; lane 6: 0.01 μM CPT; lane 7: 0.005 μM CPT. […]
The culture media from cells subjected to different treatments was prepared by centrifugation (200xg, 10 min) to remove whole cells and debris, the viral particles were subsequently pelleted (35,000 rpm, 11/2h), and the viral pellet was resuspended in 100 μl of RIPA buffer (50 mM Tris-HC1, pH 7.5; 0.5M NaHPO4, 0.5% NP40, 0.25% Na-deoxycholate, 0.1% SDS). […] Protein concentration was determined using the Bio-Rad protein assay. […]

[9] = group B, virus dil. 1/500, CPT 5 mg/kg IP
[10] = group C, virus dil. 1/500, CPT 10 mg/kg IP
[11] = group D, virus dil. 1/500, CPT 20 mg/kg IP
[12] = group F, virus dil. 1/2000, CPT 5 mg/kg IP
[13] = group G, virus dil. 1/2000, CPT 10 mg/kg IP
[14] = group H, virus dil. 1/2000, CPT 20 mg/kg IP
[15] = group J, no virus, CPT 5 mg/kg IP
[16] = group K, no virus, CPT 10 mg/kg IP
[17] = group L, no virus, CPT 20 mg/kg IP

SMILES: CC[C@@]1(O)C(=O)OCc2c1cc1n(c2=O)Cc2cc3ccccc3nc2-1 [CPT, Camptothecin]
- inhibition of eukaryotic topo I [1]: known specific inhibitor of eukaryotic topo I
- Number Friend disease positive (spleen weight >0.2 g) [2, 9]: 4/5
- Spleen weight AVG. [2, 9]: 0.78 g
- Number Friend disease positive (spleen weight >0.2 g) [2, 10]: 3/5
- Spleen weight AVG. [2, 10]: 0.84 g
- Number Friend disease positive (spleen weight >0.2 g) [2, 11]: 4/5
- Spleen weight AVG. [2, 11]: 0.28 g
- Number Friend disease positive (spleen weight >0.2 g) [2, 12]: 1/5
- Spleen weight AVG. [2, 12]: 0.22 g
- Number Friend disease positive (spleen weight >0.2 g) [2, 13]: 0/5
- Spleen weight AVG. [2, 13]: 0.18 g
- Number Friend disease positive (spleen weight >0.2 g) [2, 14]: 1/5
- Spleen weight AVG. [2, 14]: 0.22 g
- Number Friend disease positive (spleen weight >0.2 g) [2, 15]: 0/5
- Spleen weight AVG. [2, 15]: 0.12 g
- Number Friend disease positive (spleen weight >0.2 g) [2, 16]: 0/5
- Spleen weight AVG. [2, 16]: 0.10 g
- Number Friend disease positive (spleen weight >0.2 g) [2, 17]: 0/5
- Spleen weight AVG. [2, 17]: 0.12 g
- induction of erythroleukemia by SFFV ([2]; in vivo): blocks the induction of erythroleukemia by SFFV in vivo
- effect on number of mice with enlarged spleens and average spleen weight ([2]; vs control, virus infected mice): reduced the number of mice showing enlarged spleens and the average spleen weight
- Simian Virus 40 DNA replication [3]: selectively interferes with Simian Virus 40 DNA replication
- fragmentation of DNA ([4]; mammalian cells): causes rapid and reversible fragmentation of DNA in mammalian cells
- RNA and DNA synthesis [4]: inhibits RNA and DNA synthesis
- viral associated topo I activity [5]: inhibited
- lentivirus-associated topoisomerase activity [6]: inhibited this activity
- # diseased mice (diseased/injected) ([7]; no virus, IP): 0/5
- AVG. spleen WT. ([7]; no virus, IP): 0.10 g
- # diseased mice (diseased/injected) ([7]; no virus, IV): 0/5
- AVG. spleen WT. ([7]; no virus, IV): 0.10 g
- injected mice died within 24 hours of causes unrelated to viral disease ([7]; virus 1/500, IP): 4/5
- # diseased mice (diseased/injected) ([7]; virus 1/500, IP): 0/1
- AVG. spleen WT. ([7]; virus 1/500, IP): 0.20 g
- # diseased mice (diseased/injected) ([7]; virus 1/500, IV): 0/5
- AVG. spleen WT. ([7]; virus 1/500, IV): 0.10 g
- injected mice died within 24 hours of causes unrelated to viral disease ([7]; virus 1/1000, IP): 3/5
- # diseased mice (diseased/injected) ([7]; virus 1/1000, IP): 0/2
- AVG. spleen WT. ([7]; virus 1/1000, IP): 0.15 g
- # diseased mice (diseased/injected) ([7]; virus 1/1000, IV): 0/5
- AVG. spleen WT. ([7]; virus 1/1000, IV): 0.12 g
- p24 in culture media ([8]; 0.005 μM CPT for first 18 h (FIG. 1A)): could not be detected in the culture media
- p24 in cell extracts ([8]; 0.005-0.2 μM CPT, 1 h (FIG. 1B)): could not be detected in extracts
